This is an account of results in US9241998B2 (Board of Regents, The University of Texas System, priority 2007, dated 2016).

The subject of one experiment is RSV infected PC-3 cells. Kind of experiment: RSV induced apoptosis (TUNEL) with caspase inhibitors or neutralizing antibodies. It counts as cell-based, human. The note with it: for decline in RSV induced apoptosis (TUNEL): PC-3 cells, 36 h post-infection, 15 μM optimal for caspase-3, -9, -8 inhibitors. The method, then: PC-3 cells were pre-treated with control inhibitor (Z-FA-FMK) or caspase-3 (Z-DQMD-FMK), -8 (Z-IETD-FMK), -9 (Z-LEHD-FMK), -3/7 (Z-DEVD-FMK) (Calbiochem) and -12 (Z-ATAD-FMK) (MBL) inhibitors for 1 h at 37° C. Caspase-3, -8, -9 and -3/7 inhibitors at 15 μM-60 μM were used, while the caspase-12 inhibitor was used at 50 μM-100 μM. […] The cells were then washed and the infection was continued for an additional 36 h in the presence of inhibitors, following which apoptosis analysis was performed by TUNEL assay. […] In some experiments, infection was performed in the presence of both neutralizing antibody and caspase-3 or -8 inhibitors. At 36 h post-infection, cells were assayed for apoptosis. PC-3 and RWPE cells were pre-treated with either SN50 peptide (30 μM) or control SN50M (50 μM) peptide (Calbiochem) for 2 h, followed by virus infection (in the presence of peptides) for 0 h-36 h, after which cells were analyzed for apoptosis.

Experiment [1] concerns human lung epithelial A549 cells. Nature of the experiment: RSV mediated apoptosis in A549 cells with caspase inhibitor. It counts as cell-based. An excerpt:
(§1) The extrinsic pathway to apoptosis is induced following engagement of death receptors (e.g., TNF-receptor and Fas) with cognate ligands (TNF and FasL), leading to the activation of caspase-8. The ER-stress pathway (12) activation leads to activation of caspase-12. Activation of both caspase-8 and caspase-12 results in caspase-3 activation and apoptosis. […] Similarly, blocking caspase-9 activity also led to significant inhibition (by 75%) in apoptosis. […] It is important to note that the caspase-8 inhibitor is active, since it reduced interferon-γ+Fas antibody mediated apoptosis (14) in A549 cells by 60%.

The test system of a further experiment is PC-3 cells. Nature of the experiment: Western blot of apoptosis proteins in RSV infected cells. It counts as cell-based, human. The method, then:
Bcl-2, Bcl-xL, Bad, Bax antibodies were obtained from Cell Signaling, while caspase-3, PARP and GFP antibodies were from Santa Cruz. Heat shock protein-70 (Hsp70) (Santa Cruz) antibody was used as a loading control. Nuclear extracts prepared from infected cells were incubated with a ^32P-labeled NF-κB oligonucleotide probe and analyzed for EMSA as described previously.
On the technique in general: In western blotting, separated proteins are transferred to a membrane and probed.

In another experiment the test system is A549 cells. Kind of experiment: Interferon-γ+Fas antibody mediated apoptosis in A549 cells. It counts as cell-based, human.
Source text: as §1

Molecules are shown by their SMILES. Peptide text beside a SMILES is read from it. * marks the point of attachment. Cbz = O=C(OCc1ccccc1)*; CH2F = FC*

`C[C@H](NC(=O)OCc1ccccc1)C(=O)N[C@H](C(=O)N[C@@H](C)C(=O)N[C@@H](CC(=O)O)C(=O)CF)[C@@H](C)O` [caspase-12 inhibitor, Z-ATAD-FMK] (Cbz-ATAD-CH2F): the “decline in RSV induced apoptosis (TUNEL)” value in the experiment with RSV infected PC-3 cells is listed as “did not alter apoptosis”. For the same molecule, the “inhibition of apoptosis in infected PC-3 cells at high concentration” value in the experiment on RSV infected PC-3 cells (up to 100 μM) was “failed to inhibit apoptosis”. Moreover, in experiment [1], the “inhibition of RSV mediated apoptosis” value was found to be 40%.

Regarding `COC(=O)C[C@H](NC(=O)[C@H](CCSC)NC(=O)[C@H](CCC(N)=O)NC(=O)[C@H](CC(=O)OC)NC(=O)OCc1ccccc1)C(=O)CF` [caspase-3 inhibitor, Z-DQMD-FMK] (Cbz-D(OMe)QMD(OMe)-CH2F), the “PARP cleavage in RSV infected cells treated with inhibitor” value with PC-3 cells is listed as “prevented PARP cleavage”. Also, the “decline in RSV induced apoptosis (TUNEL)” value in the experiment with RSV infected PC-3 cells came out at 85%.

With `COC(=O)CC[C@H](NC(=O)[C@H](CC(=O)OC)NC(=O)OCc1ccccc1)C(=O)N[C@H](C(=O)N[C@@H](CC(=O)OC)C(=O)CF)C(C)C` [Z-DEVD-FMK], the “PARP cleavage in RSV infected cells treated with inhibitor” value in the experiment with PC-3 cells is on record as “prevented PARP cleavage”.

Consider `CC[C@H](C)[C@H](NC(=O)OCc1ccccc1)C(=O)N[C@@H](CCC(=O)OC)C(=O)N[C@H](C(=O)N[C@@H](CC(=O)OC)C(=O)CF)[C@@H](C)O` [caspase-8 inhibitor, Z-IETD-FMK] (Cbz-IE(OMe)TD(OMe)-CH2F), for which the “decline in RSV induced apoptosis (TUNEL)” value with RSV infected PC-3 cells was 15%. For the same molecule, in the experiment on A549 cells, the “reduction of interferon-γ+Fas antibody mediated apoptosis” value is listed as 60%.

Take `COC(=O)CC[C@H](NC(=O)[C@H](CC(C)C)NC(=O)OCc1ccccc1)C(=O)N[C@@H](Cc1cnc[nH]1)C(=O)N[C@@H](CC(=O)OC)C(=O)CF` [caspase-9 inhibitor, Z-LEHD-FMK] (Cbz-LE(OMe)HD(OMe)-CH2F): the “decline in RSV induced apoptosis (TUNEL)” value in the experiment with RSV infected PC-3 cells is 75%.
